Data on two compounds can be found in patent US20160067347A1, “APJ RECEPTOR AGONISTS AND USES THEREOF” (AMGEN INC., priority 2012, published 2016).

A value given as a limit tells only on which side of the number the result lay.

For series [1] the following is noted: background statement; cited from earlier work.
The nature of series [2]: In vitro plasma stability of apelin peptides (Table 15; plasma species not given). The series is classed as in vitro ADME. The following applies: 5 μM in plasma, 37° C. An excerpt:
(metabolite data not shown).

The nature of another series: in vitro. The following applies: rat, plasma.
The test system of a further series is isolated cardiomyocyctes. Particulars: isolated cardiomyocytes; Barnes et al.; cited from earlier work.

The fraction remaining is the share of the starting amount still present when the sample was taken. Lower therefore signals more turnover.

Regarding `CSCC[C@H](NC(=O)[C@@H]1CCCN1C(=O)CNC(=O)[C@H](CCCCN)NC(=O)[C@H](Cc1cnc[nH]1)NC(=O)[C@H](CO)NC(=O)[C@H](CC(C)C)NC(=O)[C@H](CCCNC(=N)N)NC(=O)[C@@H]1CCCN1C(=O)[C@H](CCCNC(=N)N)NC(=O)[C@@H](N)CCC(N)=O)C(=O)N1CCC[C@H]1C(=O)N[C@@H](Cc1ccccc1)C(=O)O` [Apelin-13], the plasma half-life in series [1] was < 5 min. Also, the “in vitro plasma stability, % at 15 minutes” value in series [2] came to 0.1%. In the series “in vitro”, this compound came in with a fraction remaining at 0.25 h, 5 μM of 0.1%.

As for apelin, the “increase in sarcomere shortening” value in the series on isolated cardiomyocyctes is “up to 140%”.
